The results in this text go back to patent US8138171B2, “Dioxolane and dioxolanone fused indolobenzadiazepine HCV NS5B inhibitors” (Bristol-Myers Squibb Company, priority 2008, dated 2012).

Read-outs that look alike come from different tables or passages of the source.

Assay [1] deals with T1, HCV NS5B RdRp genotype 1b (Hepatitis C virus genotype 1b, UniProt P26663).
T1 construct: The protein was expressed with an 18 amino acid C-terminal truncation to enhance the solubility; made in house; host or cells: E. coli BL21(DE3), pET21a
Kind of assay: Modified HCV NS5B RdRp enzyme assay (preincubation protocol). It is filed as biochemical. The method, then: HCV NS5B RdRp cloning, expression, and purification. The cDNA encoding the NS5B protein of HCV, genotype 1b, was cloned into the pET21a expression vector. The protein was expressed with an 18 amino acid C-terminal truncation to enhance the solubility. The E. coli competent cell line BL21(DE3) was used for expression of the protein. Cultures were grown at 37° C. for ˜4 hours until the cultures reached an optical density of 2.0 at 600 nm. The cultures were cooled to 20° C. and induced with 1 mM IPTG. Fresh ampicillin was added to a final concentration of 50 μg/ml and the cells were grown overnight at 20° C.
Cell pellets (3 L) were lysed for purification to yield 15-24 […] of purified NS5B. The lysis buffer consisted of 20 mM Tris-HCl, pH 7.4, 500 mM NaCl, 0.5% triton X-100, 1 mM DTT, 1 mM EDTA, 20% glycerol, 0.5 mg/ml lysozyme, 10 mM MgCl2, 15 ug/ml deoxyribonuclease I, and Complete™ protease inhibitor tablets (Roche). After addition of the lysis buffer, frozen cell pellets were resuspended using a tissue homogenizer. To reduce the viscosity of the sample, aliquots of the lysate were sonicated on ice using a microtip attached to a Branson sonicator. The sonicated lysate was centrifuged at 100,000×g for 1 hr at 4° C. and filtered through a 0.2 μm filter unit (Corning).
The protein was purified using three sequential chromatography steps: Heparin sepharose CL-6B, polyU sepharose 4B, and Hitrap SP sepharose (Pharmacia). The chromatography buffers were identical to the lysis buffer but contained no lysozyme, deoxyribonuclease I, MgCl2 or protease inhibitor and the NaCl concentration of the buffer was adjusted according to the requirements for charging the protein onto the column. Each column was eluted with a NaCl gradient which varied in length from 5-50 column volumes depending on the column type. After the final chromatography step, the resulting purity of the enzyme is >90% based on SDS-PAGE analysis. The enzyme was aliquoted and stored at −80° C.
Standard HCV NS5B RdRp enzyme assay. HCV RdRp genotype 1b assays were run in a final volume of 60 μl in 96 well plates (Costar 3912). The assay buffer is composed of 20 mM Hepes, pH 7.5, 2.5 mM KCl, 2.5 mM MgCl2, 1 mM DTT, 1.6 U RNAse inhibitor (Promega N2515), 0.1 mg/ml BSA (Promega R3961), and 2% glycerol. All compounds were serially diluted (3-fold) in DMSO and diluted further in water such that the final concentration of DMSO in the assay was 2%. HCV RdRp genotype 1b enzyme was used at a final concentration of 28 nM. A polyA template was used at 6 nM, and a biotinylated oligo-dT12 primer was used at 180 nM final concentration. Template was obtained commercially (Amersham 27-4110). Biotinylated primer was prepared by Sigma Genosys. 3H-UTP was used at 0.6 μCi (0.29 μM total UTP). Reactions were initiated by the addition of enzyme, incubated at 30° C. for 60 min, and stopped by adding 25 μl of 50 mM EDTA containing SPA beads (4 μg/μl, Amersham RPNQ 0007). Plates were read on a Packard Top Count NXT after >1 hr incubation at room temperature.
Modified HCV NS5B RdRp enzyme assay. A modified enzyme assay was performed essentially as described for the standard enzyme assay except for the following: The biotinylated oligo dT12 primer was precaptured on streptavidin-coated SPA beads by mixing primer and beads in assay buffer and incubating at room temperature for one hour. Unbound primer was removed after centrifugation. The primer-bound beads were resuspended in 20 mM Hepes buffer, pH 7.5 and used in the assay at final concentrations of 20 nM primer and 0.67 μg/μl beads. Order of addition in the assay: enzyme (14 nM) was added to diluted compound followed by the addition of a mixture of template (0.2 nM), 3H-UTP (0.6 μCi, 0.29 μM), and primer-bound beads, to initiate the reaction; concentrations given are final. Reactions were allowed to proceed for 4 hours at 30° C.
IC50 values for compounds were determined using seven different. […]

In another assay the test system is HCV replicon cells. Kind of assay: HCV replicon FRET assay. To be noted: Hepatitis C virus. In kind it is cell-based. The source says:
FRET Assay Preparation. To perform the HCV FRET screening assay, 96-well cell culture plates were used. The FRET peptide (Anaspec, Inc.) (Taliani et al., Anal. Biochem. 1996, 240, 60-67) contains a fluorescence donor, EDANS, near one end of the peptide and an acceptor, DABCYL, near the other end. The fluorescence of the peptide is quenched by […] resonance energy transfer (RET) between the donor and the acceptor, but as the NS3 protease cleaves the peptide the products are released from RET quenching and the fluorescence of the donor becomes apparent. The assay reagent was made as follows: 5× cell Luciferase cell culture lysis reagent from Promega (#E153A) diluted to 1× with dH2O, NaCl added to 150 mM final, the FRET peptide diluted to 20 uM final from a 2 mM stock.
To prepare plates, HCV replicon cells, with or without a Renilla luciferase reporter gene, were trypsinized and placed into each well of a 96-well plate with titrated test compounds added in columns 3 through 12; columns 1 and 2 contained a control compound (HCV protease inhibitor), and the bottom row contained cells without compound. The plates were then placed in a CO2 incubator at 37° C.
Assays. Subsequent to addition of the test compounds described above (FRET Assay Preparation), at various times the plate was removed and Alamar blue solution (Trek Diagnostics, #00-100) was added per well as a measure of cellular toxicity, After reading in a Cytoflour 4000 instrument (PE Biosystems), plates were rinsed with PBS and then used for FRET assay by the addition of 30 ul of the FRET peptide assay reagent described above (FRET Assay Preparation) per well. The plate was then placed into the Cytoflour 4000 instrument which had been set to 340 excite/490 emission, automatic mode for 20 cycles and the plate read in a kinetic mode. Typically, the signal to noise using an endpoint analysis after the reads was at least three-fold. Alternatively, after Alamar blue reading, plates were rinsed with PBS, 50 ul of DMEM (high glucose) without phenol red was added and plates were then used for luciferase assay using the Promega Dual-Glo Luciferase Assay System.
Compound analysis was determined by quantification of the relative HCV replicon inhibition and the relative cytotoxicity values. To calculate cytoxicity values, the average Alamar Blue fluorescence signals from the control wells were set as 100% non-toxic. The individual signals in each of the compound test wells were then divided by the average control signal and multiplied by 100% to determine […]. To calculate the HCV replicon inhibition values, an average background value was obtained from the two wells containing the highest amount of HCV protease inhibitor at the end of the assay period. These numbers were similar to those obtained from naive Huh-7 cells.
The background numbers were then subtracted from the average signal obtained from the control wells and this number was used as 100% activity. The individual signals in each of the compound test wells were then divided by the averaged control values after background subtraction and multiplied by 100% to determine percent activity. EC50 values for a protease inhibitor titration were calculated as the concentration which caused a 50% reduction in FRET or luciferase activity. The two numbers generated for the compound plate, percent cytoxicity and percent activity were used to determine compounds of interest for further analysis.

[2] abbreviates: HCV NS5B RdRp genotype 1b, preincubation protocol, read-out: IC50.
Where [3] appears, read: HCV replicon cells, FRET assay, read-out: EC50.

T1 sequence (P26663 2420-2992): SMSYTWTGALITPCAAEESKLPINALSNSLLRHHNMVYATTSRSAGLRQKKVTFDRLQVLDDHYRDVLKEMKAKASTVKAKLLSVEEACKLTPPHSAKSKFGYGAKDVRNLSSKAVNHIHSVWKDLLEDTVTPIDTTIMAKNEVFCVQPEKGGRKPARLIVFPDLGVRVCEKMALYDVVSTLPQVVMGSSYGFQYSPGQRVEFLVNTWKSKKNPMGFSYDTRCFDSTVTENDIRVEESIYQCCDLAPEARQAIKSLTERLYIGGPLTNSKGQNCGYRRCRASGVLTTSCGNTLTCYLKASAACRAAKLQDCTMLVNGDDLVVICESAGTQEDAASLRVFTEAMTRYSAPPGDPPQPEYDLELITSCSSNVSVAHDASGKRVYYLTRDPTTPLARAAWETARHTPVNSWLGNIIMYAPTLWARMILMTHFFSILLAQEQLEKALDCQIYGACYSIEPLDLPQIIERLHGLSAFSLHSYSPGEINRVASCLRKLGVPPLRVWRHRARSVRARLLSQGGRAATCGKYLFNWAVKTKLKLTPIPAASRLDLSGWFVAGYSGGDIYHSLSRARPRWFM

For `COc1ccc2c(c1)[C@@H]1OC(C)(C)O[C@]1(C(=O)N1C[C@@H](C)O[C@@H](C)C1)Cn1c-2c(C2CCCCC2)c2ccc(C(=O)NS(=O)(=O)N(C)C)cc21` (racemic) [Example 3, rac-(3aR,14bS)-10-Cyclohexyl-N-((dimethylamino)sulfonyl)-3a-(((2R,6S)-2,6-dimethyl-4-morpholinyl)carbonyl)-2,2-dimethyl-13-(methyloxy)-3a,14b-dihydro-4H-[1,3]dioxolo[4,5-d]indolo[2,1-a][2]benzazepine-7-carboxamide], in assay [1] (setting [2]), the IC50 stood at 110 nM. For the same compound, a half-maximal response in the assay on HCV replicon cells (EC50) required 170 nM.
As to `COc1ccc2c(c1)[C@@H]1OC(=O)O[C@]1(C(=O)N1C3CCC1CN(C)C3)Cn1c-2c(C2CCCCC2)c2ccc(C(=O)NS(=O)(=O)N(C)C)cc21` (racemic) [Example 4, rac-(3aR,14bS)-10-Cyclohexyl-N-((dimethylamino)sulfonyl)-3a-((3-methyl-3,8-diazabicyclo[3.2.1]oct-8-yl)carbonyl)-13-(methyloxy)-2-oxo-3a,14b-dihydro-4H-[1,3]dioxolo[4,5-d]indolo[2,1-a][2]benzazepine-7-carboxamid], the IC50 in assay [1] was found to be 91 nM. The compound further yielded an EC50 in the assay with HCV replicon cells of 100 nM.
In the same order, the values of `COc1ccc2c(c1)[C@@H]1OCO[C@]1(C(=O)N1C3CCC1CN(C)C3)Cn1c-2c(C2CCCCC2)c2ccc(C(=O)NS(=O)(=O)N(C)C)cc21` (racemic) [Example 6, rac-(3aR,14bS)-10-Cyclohexyl-N-((dimethylamino)sulfonyl)-3a-((3-methyl-3,8-diazabicyclo[3.2.1]oct-8-yl)carbonyl)-13-(methyloxy)-3a,14b-dihydro-4H-[1,3]dioxolo[4,5-d]indolo[2,1-a][2]benzazepine-7-carboxamid] are 430 nM and 140 nM.
In the same order, the values of `COc1ccc2c(c1)[C@@H]1OC(C)(C)O[C@]1(C(=O)N1C3CCC1CN(C)C3)Cn1c-2c(C2CCCCC2)c2ccc(C(=O)NS(=O)(=O)N(C)C)cc21` (racemic) [Example 5, rac-(3aR,4bS)-10-Cyclohexyl-N-((dimethylamino)sulfonyl)-2,2-dimethyl-3a-((3-methyl-3,8-diazabicyclo[3.2.1]oct-8-yl)carbonyl)-13-(methyloxy)-3a,14b-dihydro-4H-[1,3]dioxolo[4,5-d]indolo[2,1-a][2]benzazepine-7-carboxamid] are 590 nM and 140 nM.
With `COc1ccc2c(c1)[C@@H]1OC(=O)O[C@]1(C(=O)N1C[C@@H](C)O[C@@H](C)C1)Cn1c-2c(C2CCCCC2)c2ccc(C(=O)NS(=O)(=O)N(C)C)cc21` (racemic) [Example 2, rac-(3aR,14bS)-10-Cyclohexyl-N-((dimethylamino)sulfonyl)-3a4(2R,6S)-2,6-dimethyl-4-morpholinyl)carbonyl)-13-(methyloxy)-2-oxo-3a,14b-dihydro-4H-[1,3]diaxolo[4,5-d]indolo[2,1-a][2]benzazepine-7-carboxamide], in assay [1] (setting [2]), the IC50 was determined as 33 nM. The EC50 in the assay with HCV replicon cells (setting [3]) amounted to 59 nM.
In the same order, the values of `COc1ccc2c(c1)[C@@H]1OC(C)(C)O[C@]1(C(=O)N(C)CCN(C)C)Cn1c-2c(C2CCCCC2)c2ccc(C(=O)NS(=O)(=O)N(C)C)cc21` (racemic) [Example 1, rac-(3aR,14bS)-10-Cyclohexyl-N^3a-(2-(dimethylamino)ethyl)-N^7-((dimethylamino)sulfonyl)-N^3a,2,2-trimethyl-13-(methyloxy)-4H-[1,3]dioxolo[4,5-d]indolo[2,1-a][2]benzazepine-3a,7(14bH)-dicarboxamide] are 170 nM and 130 nM.
